The values below come from ChEMBL document CHEMBL5244253, “Recent research progress on natural small molecule bibenzyls and its derivatives in Dendrobium species” (Eur J Med Chem, 2020).

Series [1] relates to HL-60. Kind of series: Anti-cancer activity against human HL-60 cells. The class given is functional, cell-based.
In series [2] the test system is THP-1. The series can be described thus: Anti-cancer activity against human THP-1 cells. The class given is functional, cell-based.
In series [3] the test system is K562. Kind of series: Anti-cancer activity against human K562 cells. The class given is functional, cell-based.
Series [4] relates to SGC-7901. Kind of series: Anti-cancer activity against human SGC-7901 cells. Type of series: functional, cell-based.
Series [5] concerns KB. The series can be described thus: Anti-cancer activity against human KB cells. The class given is functional, cell-based.
Series [6] concerns Bel-7402. The series can be described thus: Anti-cancer activity against human Bel-7402 cells. Type of series: functional, cell-based.
The subject of series [7] is HepG2. The series can be described thus: Anti-cancer activity against human HepG2 cells. Type of series: functional, cell-based.
Series [8] deals with MCF7. Kind of series: Anti-cancer activity against human MCF7 cells. Type of series: functional, cell-based.
In series [9] the test system is NCI-H460. Kind of series: Anti-cancer activity against human NCI-H460 cells. The class given is functional, cell-based.
Series [10] has as its system NCI-H187. The series can be described thus: Anti-cancer activity against human NCI-H187 cells. Type of series: functional, cell-based.
The target of series [11] is Tyrosine-protein phosphatase non-receptor type 1 (Homo sapiens, UniProt P18031). Kind of series: Inhibition of PTP1B (unknown origin).
Series [12] can be described thus: Antioxidant activity assessed as DPPH radical scavenging activity incubated for 30 mins by spectrophotometric analysis. The class given is functional. Background: The DPPH test is a chemical assay of radical scavenging.
In series [13] the test system is T-24. Kind of series: Anti-cancer activity against human T24 cells. Type of series: functional, cell-based.
The test system of series [14] is NCI-H23. The series can be described thus: Anti-cancer activity against human NCI-H23 cells. Type of series: functional, cell-based.
The subject of series [15] is NCI-H460. The series can be described thus: Cytotoxicity against human NCI-H460 cells assessed as cell viability by MTT assay. The class given is functional, cell-based. Background: Formazan colour is commonly taken as a measure of viable cells.
Series [16] concerns PC-12. The series can be described thus: Neuroprotection against Amyloid beta (25 to 35)-induced toxicity in rat PC-12 cells assessed as increase in cell viability at 50 uM for 24 hrs by MTT assay relative to control. The class given is functional.
The test system of series [17] is PC-12. The series can be described thus: Neuroprotection against Amyloid beta (25 to 35)-induced toxicity in rat PC-12 cells assessed as increase in cell viability at 25 uM for 24 hrs by MTT assay relative to control. The class given is functional.
Series [18] relates to PC-12. Kind of series: Neuroprotection against Amyloid beta (25 to 35)-induced toxicity in rat PC-12 cells assessed as increase in cell viability at 10 uM for 24 hrs by MTT assay relative to control. The class given is functional.
A short description of series [19]: Permeability of the compound by PAMPA-BBB assay. The class given is ADME. Conditions: read-out: permeability.
Series [20] concerns FaDu. Kind of series: Cytotoxicity against human FaDu cells assessed as cell viability incubated for 24 hrs by CCK-8 assay. Type of series: functional, cell-based.
The subject of series [21] is MDA-MB-231. Kind of series: Cytotoxicity against human MDA-MB-231 cells assessed as cell viability incubated for 72 hrs by MTT assay. The class given is functional, cell-based. The note with it: MDA-MB-231, 72 h.
In series [22] the test system is HepG2. Kind of series: Cytotoxicity against human HepG2 cells assessed as cell viability incubated for 72 hrs by MTT assay. Type of series: functional, cell-based. Conditions: HepG2, 72 h.
The subject of series [23] is HT-29. Kind of series: Cytotoxicity against human HT-29 cells assessed as cell viability incubated for 72 hrs by MTT assay. The class given is functional, cell-based. Conditions: HT-29, 72 h.
In series [24] the target is Alpha amylase (Homo sapiens, UniProt P0DUB6). The series can be described thus: Inhibition of alpha-amylase (unknown origin) by HPLC analysis.
Series [25] concerns MCF7. The series can be described thus: Cytotoxicity against human MCF7 cells assessed as cell viability incubated for 48 hrs by MTS assay. The class given is functional, cell-based. The note with it: MCF7, 48 h.
Series [26] concerns RAW264.7. The series can be described thus: Antiinflammatory activity in mouse RAW264.7 cells assessed as inhibition of H2O2-induced intracellular ROS production at 50 ug/ml measured after 24 hrs by DCFH-DA staining based fluorescence assay. Type of series: functional.
Series [27] deals with RAW264.7. The series can be described thus: Antiinflammatory activity in mouse RAW264.7 cells assessed as inhibition of LPS-induced TNFalpha secretion at 50 ug/ml measured after 24 hrs. The class given is functional.
Series [28] deals with RAW264.7. The series can be described thus: Antiinflammatory activity in mouse RAW264.7 cells assessed as inhibition of LPS-induced NO production at 50 ug/ml measured after 24 hrs. The class given is functional.

Molecules are shown by their SMILES.

Usually IC50 stands for the concentration that gives 50% inhibition. As a reminder, the inhibition is the relative decrease from the control value, in per cent.

Chain of Tyrosine-protein phosphatase non-receptor type 1 (P18031 whole entry): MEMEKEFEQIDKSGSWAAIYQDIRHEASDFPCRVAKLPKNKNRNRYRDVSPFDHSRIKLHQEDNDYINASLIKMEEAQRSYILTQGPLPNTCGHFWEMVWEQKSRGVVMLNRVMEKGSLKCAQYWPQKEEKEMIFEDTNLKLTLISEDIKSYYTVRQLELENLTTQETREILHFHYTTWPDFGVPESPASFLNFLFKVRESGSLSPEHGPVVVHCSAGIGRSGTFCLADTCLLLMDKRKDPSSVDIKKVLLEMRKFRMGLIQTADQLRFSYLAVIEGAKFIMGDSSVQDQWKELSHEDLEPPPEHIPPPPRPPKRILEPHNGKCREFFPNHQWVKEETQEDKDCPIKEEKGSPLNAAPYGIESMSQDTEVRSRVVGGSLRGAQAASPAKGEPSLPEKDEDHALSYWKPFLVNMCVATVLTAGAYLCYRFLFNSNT
Chain of Alpha amylase (P0DUB6 whole entry): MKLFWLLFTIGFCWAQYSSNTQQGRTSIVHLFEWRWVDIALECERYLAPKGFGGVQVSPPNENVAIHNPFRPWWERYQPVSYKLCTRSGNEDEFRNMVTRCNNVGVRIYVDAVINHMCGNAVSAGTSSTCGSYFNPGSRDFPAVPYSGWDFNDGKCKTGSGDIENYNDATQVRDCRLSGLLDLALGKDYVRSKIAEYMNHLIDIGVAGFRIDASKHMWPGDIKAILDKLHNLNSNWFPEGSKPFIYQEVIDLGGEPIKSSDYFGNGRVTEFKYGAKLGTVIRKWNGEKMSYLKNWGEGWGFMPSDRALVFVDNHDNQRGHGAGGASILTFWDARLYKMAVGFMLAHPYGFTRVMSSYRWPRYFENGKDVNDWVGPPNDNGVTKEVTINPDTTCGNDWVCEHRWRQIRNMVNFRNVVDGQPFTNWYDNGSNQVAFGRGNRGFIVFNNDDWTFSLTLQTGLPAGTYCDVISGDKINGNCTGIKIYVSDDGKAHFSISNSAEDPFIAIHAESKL

In the case of `COc1cc(O)cc(CCc2ccc(O)c(OC)c2)c1` [GIGANTOL], the IC50 was found to be 10.6 µM in series [1]; 23.3 µM in [2]; 63.9 µM in series [3]; 17.4 µM in [4]; 61.9 µM in [5]; 13 µM in series [6]. Further, the IC50 in series [7] turned out to be 9.3 µM; in series [8], 67.8 µM; in series [9] it was 76.9 µM; in series [10], 235 µM; in [11], 73.3 µM; in [12], 17.7 µM.
For `COc1ccc(CCc2cc(OC)c(OC)c(OC)c2)cc1O`, the IC50 in [13] was determined as 460 nM.
For the molecule `COc1ccc(CCc2cc(OC)c(O)c(OC)c2)cc1OC`, the values for the IC50 in series [14], in series [15] and in series [12] were 145 µM, 127 µM and 14 µM, respectively. Also, the Activity is 58.89% in [16], 55.02% in [17] and 52.72% in [18]. For the same molecule, in series [19], the Papp was 4.1 ×10⁻⁶ cm/s.
As for `COc1cc(CCc2cc(OC)c(O)c(OC)c2)ccc1O` [MOSCATILIN], the IC50 in [1] was 0.082 µM; in series [2], 226 µM; in series [14], 33.4 µM; in series [20] it was 2550 nM; in series [12], 17.1 µM.
As for `COc1ccc(CCc2cc(O)c(O)c(OC)c2)cc1`, the IC50 in series [1] came to 10.7 µM; in series [21] it was 80.5 µM; in [22], 138 µM; in series [23], 88.2 µM; in series [24], 5.99 mM.
In the case of `COc1ccc(CCc2cc3c(c(OC)c2)C[C@@H](CO)[C@H](c2ccc(O)c(OC)c2)C3)cc1`, the IC50 in [25] is 38.5 µM.
In the case of `COc1cc(CC2c3cc(O)c(O)c(OC)c3Oc3cc(O)c4c(c32)CCc2cc(O)ccc2-4)ccc1O` (centres undefined), the inhibition at 50 µg/mL in [26] was found to be 65%; in series [27] it was 70%; in series [28] it was 65%.
